Source: US20090269419A1, “COSMETIC COMPOSITION BASED ON POLYUNSATURATED FATTY ACIDS AND ITS USES” (priority 2006, published 2009)

Legend:
melanocytes [1] = assay: Reduction of intra-cellular melanin; assay type: cell-based; conditions: AA-2G 2 mM for 48 hours
Protocol: • a) Culturing of melanocytes for 48 hours • b) Addition of AA-2G 2 mM for 48 hours • c) Lysis of the cells in order to read the quantity of melanin contained.

melanocytes [2] = assay: Inhibition of melanogenesis stimulated by theophylline; assay type: cell-based; conditions: AA-2G 2.5 mM for 12 hours; theophylline 0.5 mM
Protocol: • a) Culturing of melanocytes with AA-2G 2.5 mM+control without AA-2G for 12 hours • b) Stimulation of melanogenesis by theophylline (0.5 mM) • c) Detection of melanin by colorimetry (photos).

collagenase = assay: Anti-collagenase activity on frozen sections, collagen stained with picro-sirius and image analysis; assay type: biochemical
Protocol: The anti-collagenase activity test was carried out on ds-es frozen sections. The products to be tested were mixed (volume/volume) with a collagenase solution at 60 U/ml. Incubation took place in a humid chamber for 2 h at 37° C. The remaining collagen was stained with picro-sirius and quantified by image analysis.
• 1. Control TRIS buffer • 2. Collagenase […] • 3. Reference R: phenanthroline • 4. Reference R: phenanthroline+collagenase 60 U/ml • 5. Product P2: Immortelle very precious cream ref 05.34.A • 6. Product P2: Immortelle very precious cream ref 05.34.A+collagenase 60 U/ml
For each sample, 4 microscopic fields were analysed as a function of the size of the sample. Each microscopic field is digitised and analysed according to the method described below using the LEICA QWIN software.
1. Digitised Image • Staining of the collagen network
2. Detection of the Collagen by Thresholding • Binary mask 0
3. Determination of the Zone of Interest • Exclusion of the epidermis and annexes • Inversion of the mask so as to retain only the zone corresponding to the dermis • Binary mask 2
4. Selection of Collagen in the Zone of Interest • Binary mask 3=2+0
5. Surface measurement Measurement of binary mask 3 • Measurement of binary mask 2
6. Results Exporting of results to Excel • Calculation of the percentage of surface area occupied by collagen in the dermis

keratinocytes = assay: Stimulation of ATP synthesis, intracellular ATP content by bioluminescence; assay type: cell-based; conditions: 0.01%; incubation for 6 hours
Protocol: After incubation for 6 hours, the intracellular ATP content was measured by bioluminescence using the kit “ATP Monitoring Kit” (LABSYSTEMS) according to the manufacturer's instructions. The results were expressed in mM of ATP and as a percentage of the control group.
Effect of Sepitonic M3 and of cytochrome C on the ATP content of keratinocytes after incubation for 6 hours: […]

Molecule: O=C1O[C@H]([C@@H](O)CO)C(O)=C1O[C@H]1O[C@H](CO)[C@@H](O)[C@H](O)[C@H]1O [AA-2G, O-α-D-glucopyranosyl-(1→2)-L-ascorbic acid]
- reduction of intra-cellular melanin (melanocytes [1]): 60%
- quantity of developed melanin versus untreated melanocytes (photos) (melanocytes [2]): lesser quantity of developed melanin

Molecule: c1cnc2c(c1)ccc1cccnc12 [phenanthroline]
- anti-collagenase activity, in words (collagenase): completely inhibits the effect of collagenase
- percentage of surface area occupied by collagen in the dermis, Mean (typical variance) (collagenase; With collagenase (60 U/ml mixed volume/volume), 2 h at 37° C.): 90.4 (3.8) %
- histological examination of the collagen (collagenase; without collagenase): well structured
- percentage of surface area occupied by collagen in the dermis, Mean (typical variance) (collagenase; without collagenase): 88.7 (1.5) %

Molecule: Cytochrome C: reference in the keratinocyte ATP test
- ATP content of keratinocytes, percentage of the control group (ES) (keratinocytes): ES 110%
